Marks after values point to notes of the source that are not given here.
How the values were obtained:
[1] = molecular target: T1, AMPLITAQ DNA polymerase (Taq polymerase) (Thermus aquaticus, UniProt P19821); assay: PCR amplification of PERV protease fragment (327 bp) in presence of dye/surfactant; product on agarose gel or quantitated with Agilent 2100 Bioanalyzer; assay type: biochemical
T1 construct: purchased Applied Biosystems, Foster City, Calif
Protocol: Typically, a fresh stock solution of 5 milligrams (mg) of a water-insoluble near-infrared dye (NIR dye) was dissolved in 50 microliters (μL) of dimethylsulfoxide (DMSO) and brought up in water to a final volume of 1 milliliter (mL). This was then diluted out to various concentrations of dye. The diluted dye (typically 0.2 mg/mL) was then added to a surfactant solution (typically 4 wt-%) to form a complex. The complex was added to a PCR reaction.
PCR reactions were set up for a conserved sequence (327 bp) in the protease region of the genome of porcine endogenous retrovirus using a plasmid containing the PERV protease fragment, a forward primer and a reverse primer designed using a primer express program from Applied Biosystems, and AMPLITAQ DNA polymerase cocktail (commercially available from Applied Biosystems, Foster City, Calif.) and cycled in a thermocycler (9700, Applied Biosystems). The PCR reactions were typically carried out in 25-μL volumes. The NIR dye/surfactant mixture was added to the PCR cocktail to give the desired concentration of dye and surfactant in a total volume of 25 μL. A typical PCR cocktail contains 10x buffer, 2.5 μL; dNTPs, 2.0 μL (200 μM of each); forward primer, 0.5 μL (200 nM); reverse primer, 0.5 μL (200 nM); template DNA, 1.0 (1 ng/μL); Amplitaq, 0.25 μL (1.25 units); sterile water, 18.25 μL.
The products of PCR reactions were run on 1% agarose gel containing ethidium bromide and visualized using an ALPHA IMAGER (Alpha Innotech Corp., San Leandro, Calif.). […] However, a higher concentration of dye (0.1 mg/mL) for effective heating was needed. Thus, for all further PCR experiments, a dye concentration of 0.1 mg/mL or higher was used. […] Taq polymerase was tested from different manufacturers (Promega Corp., Madison, Wis.; Roche Biochemicals, Indianapolis, Ind.; Eppendorf, Scientific Inc., Westbury, N.Y.; Sigma, St. Louis, Mo.) and all the Taq polymerases were inhibited by 785 WS and SDA 8080.
In order to find out the optimum concentration of surfactant for PCR with NIR dye (785 WS and SDA 8080), the surfactant concentration in PCR reaction was varied from 0.1 wt-% to 4 wt-%. The PCR product formed was quantitated using DNA 7500 Labchip kit in Agilent 2100 Bioanalyzer (Agilent Inc, Paloalto, Calif.). The results shown in Table 3 indicate that increasing the concentration of surfactant relative to dye assists in the formation of PCR product.
A variety of dyes (NIR dyes such as IR782, IR768, SDA 2141, SDA8327, IR 830 WS, fluorescent dyes like oligreen and visible dyes like dichlorophenol, indophenol, saffranin, crystal violet, and commercially available food coloring) at typical concentrations of 0.1 or 0.2 mg/mL were allowed to interact with 4 wt-% PLURONIC F127 and each mixture was added to the PCR cocktail. The reaction was set up to amplify PERV protease fragment as described in Example 2 and the products of the reaction were analyzed by agarose gel electrophoresis.

[2] = molecular target: Taq polymerase (Thermus aquaticus, UniProt P19821); assay: Quantitative PCR using TaqMan probes or Sybr green; assay type: biochemical; conditions: with SDA 8080 0.2 mg/mL or 785 WS 0.1 mg/mL, both cases
[3] = molecular target: T2, T4 DNA ligase (Enterobacteria phage T4, UniProt P00970); assay: DNA ligation reaction, read out by E. coli DH10B transformant colonies and by PCR of ligated products; assay type: biochemical; conditions: 4 wt-% PLURONIC for 785 WS; 4 wt-% TWEEN-20 for SDA 8080; similar number of colonies as control
T2 construct: purchased Life Technologies, Inc, Gaithesburg, Md
T2 sequence (P00970 1-487): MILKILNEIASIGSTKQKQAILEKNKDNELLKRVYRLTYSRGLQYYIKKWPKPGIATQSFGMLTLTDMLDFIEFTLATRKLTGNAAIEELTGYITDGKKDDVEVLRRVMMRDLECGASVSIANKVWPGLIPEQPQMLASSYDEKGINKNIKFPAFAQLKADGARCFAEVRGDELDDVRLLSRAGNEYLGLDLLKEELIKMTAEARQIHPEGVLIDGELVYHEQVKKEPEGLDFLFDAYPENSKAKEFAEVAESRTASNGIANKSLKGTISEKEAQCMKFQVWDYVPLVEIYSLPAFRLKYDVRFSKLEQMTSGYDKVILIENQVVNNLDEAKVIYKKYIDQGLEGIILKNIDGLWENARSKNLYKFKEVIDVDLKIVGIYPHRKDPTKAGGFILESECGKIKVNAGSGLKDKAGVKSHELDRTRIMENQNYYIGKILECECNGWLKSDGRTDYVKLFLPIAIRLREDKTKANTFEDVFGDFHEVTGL
Protocol: DNA ligation reactions were set up using T4 DNA ligase (Life Technologies, Inc, Gaithesburg, Md.) using a linearized plasmid template (pET21a, Novagen, Madison, Wis.) and a DNA insert. The reagents were used according to manufacturer's instructions. Escherichia coli DH10B competent cells were transformed with the ligated products and transformed cells were plated on Clondisc (Clontech, Palo Alto, Calif.) with appropriate antibiotic (ampicillin at 50 μg/mL). After incubation of plates at 37° C. for 16 hours to 18 hours, the resulting colonies were counted and analysed for plasmid by miniprep and restriction digest. […] In addition, all of the plasmids isolated from these plates contained the same insert as verified by restriction digest and DNA sequencing.
In addition to transformation and plating with the ligation mix, the ligated products were used as DNA template in a PCR reaction containing primers flanking the insert DNA on the plasmid template (T7 promoter and T7 terminator primers, Novagen).

[4] = Laser stability / photobleaching of dye solution on repeated laser exposure; assay type: physicochemical; conditions: SDA 8080 (0.2 mg/mL), surfactant 20 wt %; 25 exposures
Protocol: An 813-nm diode laser source at 1.2W (1.9A) (Opto Power Corp., Tucson, Ariz. ) was used to heat a 10μL volume of near-IR dye at a concentration (0.1 mg/mL for 785 WS, 0.2 mg/iL for SDA 8080) to yield a 35° C. rise in temperature. The laser was manually turned on long enough for the temperature in a 10-μL well to increase by 35° C. (1-3 seconds) and was manually turned off when that level was attained. The temperature data was obtained using a thermocouple in the well, and the transmittance data was obtained via a power meter whose signals were digitized and graphically interpreted.
In another experiment, the 10 μL well was used to see if the dye/surfactant mixture could withstand laser cycling over a period of 30 cycles. The laser power was systematically varied from 60° C. to 94° C., 30 times.
Unlike in Example 8, some dyes and dye/surfactant complexes undergo photodegradation when exposed to laser beam. […] Specifically, in the case of 785 WS/BRIJ-97, the addition of ascorbic acid (typically 5 mg/mL) helped reduce the amount of photobleaching from 100% to 20% after 30 cycles. In some circumstances, rapid/controlled photodegradation may be desired. […] This would allow DNA tags (fluorescent or vis/IR) to be monitored at the end of the PCR reaction.
Vitamin E-TPGS has both surfactant as well as antioxidant properties.

T1 sequence (P19821 whole entry, the tested form may be a part): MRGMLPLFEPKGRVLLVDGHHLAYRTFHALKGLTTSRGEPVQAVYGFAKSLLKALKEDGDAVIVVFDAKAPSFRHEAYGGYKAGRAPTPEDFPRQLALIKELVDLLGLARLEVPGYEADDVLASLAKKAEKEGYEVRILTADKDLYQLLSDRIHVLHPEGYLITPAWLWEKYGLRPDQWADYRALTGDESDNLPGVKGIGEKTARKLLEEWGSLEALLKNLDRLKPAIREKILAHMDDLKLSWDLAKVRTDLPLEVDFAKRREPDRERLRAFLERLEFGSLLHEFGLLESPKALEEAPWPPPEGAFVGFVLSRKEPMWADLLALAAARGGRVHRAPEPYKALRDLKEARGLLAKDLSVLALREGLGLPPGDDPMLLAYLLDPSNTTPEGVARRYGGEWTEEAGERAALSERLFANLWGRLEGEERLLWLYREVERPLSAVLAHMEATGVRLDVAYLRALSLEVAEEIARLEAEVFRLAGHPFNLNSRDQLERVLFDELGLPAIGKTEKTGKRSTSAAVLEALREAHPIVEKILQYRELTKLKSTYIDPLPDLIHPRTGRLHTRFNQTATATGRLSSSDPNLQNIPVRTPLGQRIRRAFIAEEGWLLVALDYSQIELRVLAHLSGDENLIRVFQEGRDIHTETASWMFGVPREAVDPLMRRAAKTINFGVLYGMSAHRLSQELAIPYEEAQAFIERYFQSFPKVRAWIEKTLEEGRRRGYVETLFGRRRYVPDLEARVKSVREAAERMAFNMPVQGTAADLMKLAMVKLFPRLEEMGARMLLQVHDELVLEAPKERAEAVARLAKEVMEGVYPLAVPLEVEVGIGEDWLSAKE
Chain of Taq polymerase (P19821 whole entry): as the sequence (P19821 whole entry, the tested form may be a part) above

Q: Which “PCR Product” value ([1]; 785 WS 0.1 mg/mL, surfactant 0.1 wt %) does the source give for `CCCCCCCCCCCC(=O)OCCOCCOCCOCCOCCOCCOCCOCCOCCOCCOCCOCCOCCOCCOCCOCCOCCOCCOCCOCCOCC(OCCOCCOCCOCCOCCOCCOCCOCCOCCOCCOCCOCCOCCOCCOCCOCCOCCOCCOCCOCCO)C1OCC(OCCOCCOCCOCCOCCOCCOCCOCCOCCOCCOCCOCCOCCOCCOCCOCCOCCOCCOCCOCCO)C1OCCOCCOCCOCCOCCOCCOCCOCCOCCOCCOCCOCCOCCOCCOCCOCCOCCOCCOCCOCCO` (stereo not shown) [TWEEN-20, Polyoxyethylene (20) sorbitan monolaurate] here?
A: 0 ng/µL

Q: What about the “PCR Product” value ([1]; 785 WS 0.1 mg/mL, surfactant 0.5 wt %) of the same compound?
A: 12.7 ng/µL

Q: And the “PCR Product” value ([1]; 785 WS 0.1 mg/mL, surfactant 1 wt %)?
A: 19 ng/µL

Q: And the “PCR Product” value ([1]; 785 WS 0.1 mg/mL, surfactant 2 wt %)?
A: 23.7 ng/µL

Q: What about the “PCR Product” value ([1]; 785 WS 0.1 mg/mL, surfactant 4 wt %) of the same compound?
A: 24 ng/µL

Q: What about the “PCR Product” value ([1]; SDA 8080 0.2 mg/mL, surfactant 0.1 wt %) of the same compound?
A: 27 ng/µL

Q: What about the “PCR Product” value ([1]; SDA 8080 0.2 mg/mL, surfactant 0.5 wt %) of the same compound?
A: 29 ng/µL

Q: And the “PCR Product” value ([1]; SDA 8080 0.2 mg/mL, surfactant 1 wt %)?
A: 31 ng/µL

Q: And the “PCR Product” value ([1]; SDA 8080 0.2 mg/mL, surfactant 2 wt %)?
A: 22 ng/µL

Q: What about the “PCR Product” value ([1]; SDA 8080 0.2 mg/mL, surfactant 4 wt %) of the same compound?
A: 19 ng/µL

Q: What about the “effect of addition of surfactant on dye-inhibited Taq polymerase” value ([1]; Taq polymerases inhibited by 785 WS and SDA 8080) of the same compound?
A: restored the activity of the enzyme

Q: What about the “PCR Product” value ([1]; surfactant 4 wt %, 785 WS 0 mg/mL (no dye), data from a different experiment under identical PCR conditions) of the same compound?
A: 28* ng/μL

Q: And the “PCR Product” value ([1]; surfactant 4 wt %, SDA 8080 0 mg/mL (no dye), data from a different experiment under identical PCR conditions)?
A: 28* ng/μL

Q: And the “effect of addition of surfactant on dye-inhibited quantitative PCR assay” value [2]?
A: restored the activity of the assay

Q: What about the “effect of surfactant on dye-inhibited ligase activity (colonies)” value [3] of the same compound?
A: restored the activity of ligase

Q: And the “Laser Stability” value [4]?
A: + (less than a 20% degradation in dye absorbance over a period of 25 exposures)
